The target of assay [1] is human thrombocytes. In words: Competitive binding of ^3 H-BIBU 52/test substance to human thrombocytes. The note with it: human thrombocytes in plasma; ^3 H-BIBU 52 5 nM; ambient temperature, 20 minutes. The procedure:
1. Competitive binding of ^3 H-BIBU 52/test substance to human thrombocytes: […] Case 5/1093-FL), which replaces the ^125 I fibrinogen ligand known from the literature and various concentrations of the substance to be tested. The free and bound ligand is separated by centrifuging and quantified by scintillation counting. The inhibition of ^3 H-BIBU 52 binding by the test substance is determined from the measurements obtained. In order to do this, donor blood is taken from an anticubital vein and anticoagulated with trisodium citrate (final concentration 13 mM). The blood is centrifuged for 10 minutes at 170×g and the supernatant platelet-rich plasma (PRP) is removed. The remaining blood is vigorously centrifuged once more in order to obtain plasma. The PRP is diluted 1:10 with autologous plasma. 750 μl are incubated with 50 μl of physiological saline solution, 100 μl of test substance solution, 50 μl of ^14 C-sucrose (3,700 Bq) and 50 μl of ^3 H-BIBU 52 (final concentration: 5 nM) at ambient temperature for 20 minutes. In order to measure the non-specific binding, 5μl of BIBU 52 (final concentration: 30 μM) are used instead of the test substance. The samples are centrifuged for 20 seconds at 10,000×g and the supernatant is poured off. 100 μl thereof are measured in order to determine the free ligand. The pellet is dissolved in 500 μl of 0.2N NaOH, 450 μl are mixed with 2 ml of scintillator and 25 μl of 5N HCl and measured. The residual plasma remaining in the pellet is determined from the ^14 C-content and the bound ligand is determined from the ^3 H-measurement. After the non-specific binding has been deducted, the pellet activity is plotted against the concentration of the test substance and the concentration for 50% inhibition of binding is determined. 2. Antithrombotic activity

Assay [2] concerns platelet aggregation. Briefly: Inhibition of platelet aggregation (collagen-induced, Born and Cross, platelet-rich plasma of healthy volunteers). The note with it: 10 minutes preincubation at 37° C. In kind it is cell-based. The method, then:
In order to do this, donor blood is taken from an anticubital vein and anticoagulated with trisodium citrate (final concentration 13 mM). The blood is centrifuged for 10 minutes at 170×g and the supernatant platelet-rich plasma (PRP) is removed. The remaining blood is vigorously centrifuged once more in order to obtain plasma. The PRP is diluted 1:10 with autologous plasma. 750 μl are incubated with 50 μl of physiological saline solution, 100 μl of test substance solution, 50 μl of ^14 C-sucrose (3,700 Bq) and 50 μl of ^3 H-BIBU 52 (final concentration: 5 nM) at ambient temperature for 20 minutes. In order to measure the non-specific binding, 5μl of BIBU 52 (final concentration: 30 μM) are used instead of the test substance. The samples are centrifuged for 20 seconds at 10,000×g and the supernatant is poured off. 100 μl thereof are measured in order to determine the free ligand. The pellet is dissolved in 500 μl of 0.2N NaOH, 450 μl are mixed with 2 ml of scintillator and 25 μl of 5N HCl and measured. The residual plasma remaining in the pellet is determined from the ^14 C-content and the bound ligand is determined from the ^3 H-measurement. After the non-specific binding has been deducted, the pellet activity is plotted against the concentration of the test substance and the concentration for 50% inhibition of binding is determined. 2. Antithrombotic activity The thrombocyte aggregation is measured using the method of Born and Cross (J. Physiol. 170: 397 (1964)) in platelet-rich plasma taken from healthy volunteers. To inhibit coagulation the blood is mixed with 3.14% sodium citrate in a volume ratio of 1:10. The pattern of the decrease in optical density of the platelet suspension is photometrically measured and recorded after the addition of the aggregation-triggering substance. The rate of aggregation is determined from the angle of inclination of the density curve. The point on the curve where there is maximum light transmittance is used to calculate the optical density. The concentration of collagen used is as small as possible but sufficient to produce an irreversible reaction curve. Standard commercial collagen produced by Hormonchemie of Munich is used. Before the addition of the collagen the plasma is incubated for 10 minutes with the substance at 37° C. From the concentration/activity curve an EC50 is determined, which describes the concentration giving a 50% change in the optical density in terms of the inhibition of aggregation.

SMILES strings stand for the structures. pEC50, pIC50: −log10 of the molar value. Where a name gives a salt, the structure may show the parent alone.

As to `COC(=O)[C@H]1CC[C@H](N(C)C(=O)N2CCN(c3ccc(C(=N)N)cc3)CC2)CC1` [1(1), 1-(4-amidinophenyl)-4-[N-[trans-4-(methoxycarbonyl)-cyclohexyl]-N-methyl-aminocarbonyl]-piperazine-hydrochloride], in assay [1], the pIC50 (commonly the IC50 on a negative log10 scale, so that one unit is a factor of ten) is 6.06. Moreover, the negative-log EC50 (pEC50) (usually the negative decadic logarithm of the EC50, by convention in mol/L) in assay [2] (Homo sapiens, Platelet) is 6.96.
For `COC(=O)[C@H]1CC[C@H](NC(=O)N2CCC(c3ccc(C(=N)N)cc3)CC2)CC1` [1(5), 4-(4-amidinophenyl)-1-[N-[trans-4-(methoxycarbonyl)-cyclohexyl]-aminocarbonyl]-piperidine-hydrochloride], in that order: 5.92 and 7.10.
For `COC(=O)[C@H]1CC[C@H](N(C)C(=O)N2CCN(c3ccc(C(=N)N)cn3)CC2)CC1` [1(9), 1-(5-amidinopyrid-2-yl)-4-[N-[trans-4-(methoxycarbonyl)-cyclohexyl]-N-methyl-aminocarbonyl]-piperazine-hydrochloride], in that order: 4.77 and 7.05.
Taken in the same sequence, the figures for `COC(=O)CC1CCN(C(=O)N2CCN(c3ccc(C(=N)N)cc3)CC2)CC1` [1(25), 1-(4-amidinophenyl)-4-[4-(methoxycarbonylmethyl)-piperidinocarbonyl]-piperazine-hydrochloride] were 4.52 and 5.17.
In the case of `CN(C(=O)N1CCN(c2ccc(C(=N)N)cc2)CC1)[C@H]1CC[C@H](C(=O)O)CC1` [2(1), 1-(4-amidinophenyl)-4-[N-(trans-4-carboxycyclohexyl)-N-methyl-aminocarbonyl]-piperazine-dihydrochloride], the pIC50 in assay [1] was 7.74. The pEC50 in assay [2] (Homo sapiens, Platelet) was 7.40.
In assay [1], `N=C(N)c1ccc(N2CCC(C(=O)N[C@H]3CC[C@H](C(=O)O)CC3)CC2)nc1` [2(2), 1-(5-amidinopyrid-2-yl)-4-[N-(trans-4-carboxycyclohexyl)-aminocarbonyl]-piperidine-dihydrochloride] had a pIC50 of 7.33. Moreover, the negative-log EC50 (pEC50) in assay [2] (Homo sapiens, Platelet) was 7.05.
`N=C(N)c1ccc(C2CCN(C(=O)N[C@H]3CC[C@H](C(=O)O)CC3)CC2)cc1` [2(3), 4-(4-amidinophenyl)-1-[N-(trans-4-carboxycyclohexyl)-aminocarbonyl]-piperidine-hydrochloride] had a pIC50 in assay [1] of 8.35. The compound further had a negative logarithm of the EC50 (pEC50) in assay [2] (human platelet-rich plasma) of 7.52.
In the case of `N=C(N)c1ccc(N2CCN(C(=O)N(Cc3ccccc3)[C@H]3CC[C@H](C(=O)O)CC3)CC2)cc1` [2(6), 1-(4-amidinophenyl)-4-[N-benzyl-N-(trans-4-carboxycyclohexyl)-aminocarbonyl]-piperazine-dihydrochloride], in assay [1], the negative-log IC50 (pIC50) was 8.82. Moreover, in assay [2] (Homo sapiens, Platelet), the pEC50 was 7.40.
For `NCc1ccc(C2CCN(C(=O)N[C@H]3CC[C@H](C(=O)O)CC3)CC2)cc1` [2(11), 4-(4-aminomethylphenyl)-1-[N-(trans-4-carboxycyclohexyl)-aminocarbonyl]-piperidine-hydrochloride], the pIC50 in assay [1] was 6.64. In addition, the pEC50 in assay [2] (Homo sapiens, Platelet) is 6.42.
For `N=C(N)c1ccc(N2CCN(C(=O)N3CCC(CC(=O)O)CC3)CC2)cc1` [2(17), 1-(4-amidinophenyl)-4-[4-(carboxymethyl)-piperidinocarbonyl]-piperazine-dihydrochloride], in that order: 7.36 and 6.89.
For `N=C(N)c1ccc(N2CCN(C(=O)N3CC=C(CC(=O)O)CC3)CC2)cc1` [2(19), 1-(4-amidinophenyl)-4-[4-(carboxymethyl)-3,4-dehydro-piperidinocarbonyl]-piperazine-dihydrochloride], in that order: 6.43 and 6.21.
Turning to `NCc1ccc(N2CCN(C(=O)N[C@H]3CC[C@H](C(=O)O)CC3)CC2)nc1` [2(22), 1-(5-aminomethylpyrid-2-yl)-4-[N-(trans-4-carboxycyclohexyl)-aminocarbonyl]-piperazine-dihydrochloride], the pIC50 in assay [1] was 6.51. This compound also gave a pEC50 in assay [2] (Homo sapiens, Platelet) of 6.17.
Taken in the same sequence, the figures for `N=C(N)c1ccc(N2CCC(C(=O)N3CCC(CC(=O)O)CC3)CC2)nc1` [2(42), 1-(5-amidinopyrid-2-yl)-4-[4-(carboxymethyl)-piperidinocarbonyl]-piperidine-dihydrochloride] were 7.00 and 6.77.
Taken in the same sequence, the figures for `N=C(NC(=O)OCc1ccccc1)c1ccc(N2CCN(C(=O)N[C@H]3CC[C@H](C(=O)O)CC3)CC2)cc1` [3(1), 1-[4-(N-benzyloxycarbonyl-amidino)-phenyl]-4-[N-(trans-4-carboxycyclohexyl)-aminocarbonyl]-piperazine] were 6.64 and 6.18.
In turn, `N=C(N)c1ccc(C2CCN(C(=O)N[C@H]3CC[C@H](C(=O)O)CC3)CC2)cc1` [3(2), 4-(4-amidinophenyl)-1-[N-(trans-4-carboxycyclohexyl)-aminocarbonyl]-piperidine] showed a negative logarithm of the IC50 (pIC50) in assay [1] of 7.85. The compound also gave a negative logarithm of the EC50 (pEC50) in assay [2] (human platelet-rich plasma) of 7.00.
In assay [1], `N=C(N)c1ccc(N2CCC(C(=O)N3CCC(CC(=O)O)CC3)CC2)cc1` [3(4), 1-(4-amidinophenyl)-4-[4-(carboxymethyl)-piperidino-carbonyl]-piperidine] gave a pIC50 of 7.11. In addition, the pEC50 in assay [2] (Homo sapiens, Platelet) was 7.00.
For `N=C(N)c1ccc(N2CCC(CC(=O)NCCC(=O)O)CC2)cc1` [3(12), 1-(4-amidinophenyl) -4-[N-(2-carboxyethyl)-amino-carbonylmethyl]-piperidine], in that order: 6.74 and 6.54.
Taken in the same sequence, the figures for `N=C(N)c1ccc(N2CCC(C(=O)N[C@H]3CC[C@H](C(=O)O)CC3)CC2)cc1` [3(15), 1-(4-amidinophenyl)-4-[N-(trans-4-carboxycyclo-hexyl)-aminocarbonyl]-piperidine] were 8.24 and 7.52.
Taken in the same sequence, the figures for `NCc1ccc(N2CCC(C(=O)N[C@H]3CC[C@H](C(=O)O)CC3)CC2)cc1` [3(17), 1-(4-aminomethylphenyl)-4-[N-(trans-4-carboxycyclo-hexyl)-aminocarbonyl]-piperidine-hydrochloride] were 7.13 and 6.74.
The compound `N=C(N)c1ccc(N2CCC(C(=O)N(CCc3ccccc3)[C@H]3CC[C@H](C(=O)O)CC3)CC2)cc1` [3(24), 1-(4-amidinophenyl)-4-[N-(trans-4-carboxycyclohexyl)-N-(2-phenylethyl)-aminocarbonyl]-piperidine] had a negative-log IC50 (pIC50) in assay [1] of 8.04. The same compound gave a pEC50 in assay [2] (Homo sapiens, Platelet) of 6.96.
For `N=C(N)c1ccc(N2CCC(C(=O)N(CCCc3ccccc3)[C@H]3CC[C@H](C(=O)O)CC3)CC2)cc1` [3(25), 1-(4-amidinophenyl)-4-[N-(trans-4-carboxycyclohexyl)-N-(3-phenylpropyl)-aminocarbonyl]-piperidine], in that order: 8.40 and 7.28.
For `CCCCCN(C(=O)C1CCN(c2ccc(C(=N)N)cc2)CC1)[C@H]1CC[C@H](C(=O)O)CC1` [3(26), 1-(4-amidinophenyl)-4-[N-(trans-4-carboxycyclohexyl)-N-(n-pentyl)-aminocarbonyl]-piperidine], in that order: 7.92 and 7.19.
For `CN(C(=O)N1CCN(c2ccc(C(=N)N)cc2)CC1)[C@H]1CC[C@H](C(=O)OC2CCCCC2)CC1` [7(2), 1-(4-amidinophenyl)-4-[N-[trans-4-(cyclohexyloxy-carbonyl)-cyclohexyl]-N-methyl-aminocarbonyl]-piperazine-dihydrochloride], in that order: 5.68 and 6.44.

Values taken from patent US5442064A, “Carboxylic acid derivatives, pharmaceutical compositions containing these compounds and processes for preparing them” (Dr. Karl Thomae GmbH, priority 1992, dated 1995).
